System: yeast genes (level of expressed mRNA)
Test: DNA chip analysis of expressed mRNA of yeast genes after 2 h culture with a toxic chemical substance
Format: cell-based, Saccharomyces cerevisiae S288C
Details: for The level of expressed mRNA in the presence of chemical substance/ (ratio to absence of chemical substance): stress protein genes, DNA chip; for The level of expressed mRNA in the presence of chemical substance/ in its absence, gene YPR184W: yeast gene YPR184W
Method: Yeast (Saccharomyces cerevtisiae S288C (α SUC2mal mel gap2 CUP1)) were cultured at 25° C. on YPD medium (yeast extract 1%, polypepton 2%, glucose 2%). One of toxic chemical substances was added to the cell at logarithmic growth phase, and the cell was further cultured for two hours. Cell was cultured without any chemical substance in the same condition, and was used as control. Concentrations of the chemical substances were defined to inhibit the growth of the yeast but not lead to death.
After the completion of cultivation, the culture was centrifuged to collect the cells. To the cells, sodium acetate buffer (50 mM sodium acetate, 10 mM EDTA, 1% SDS) was added, and the mixture was shaken at 65° C. for five minutes, followed by returning to room temperature, and obtaining the supernatant, which procedure was repeated two times. To the supernatant, ½ amount of a solution of phenol/chloroform was added, and the mixture was centrifuged to give a supernatant, which was added with an equal amount of chloroform, and the mixture was centrifuged to give a supernatant. To the supernatant, an equal amount of isopropanol containing 0.3 M sodium acetate was added, and the mixture was allowed to stand at room temperature for 30 minutes, after which the mixture was centrifuged to give a sediment of the whole RNAs. Seventy % ethanol was added to the sediment, and the mixture was again centrifuged to give a sediment, which was then dried and dissolved in water. mRNA was isolated from the whole RNAs as followings. In view of the fact that a poly A chain is attached to the 3′ terminus of mRNA, a polynucleotide having a poly T structure which was immobilized on the surface of latex beads was used to trap the mRNA, and then the mRNA was washed and eluted with spine column (Oligotex-dT30<Super>mRNA Purification Kit, Takara). Reverse transcription of the mRNA was conducted with a reverse transcriptase (Super Script II Reverse Transcriptase; catalogue No. 18064-014, GibcoBRL) using fluorescence-labeled nucleotides to give cDNAs that were introduced with Cy3-dUTP or Cy5-dUTP during the reverse transcription.
The labeled cDNAs were dissolved in TE buffer (10 mM Tris-HCl/1 mM EDTA, pH8.0), and the solution was dropped on the DNA chip containing the whole genes of yeast (DNA Chip Research Inc. Japan) so that the cDNAs were hybridized on the DNA chip at 65° C. for over 12 hours. The fluoresces intensity of the DNA chip was read with a scanner, and the ratio relative to the fluorescence intensity resulting from the absence of chemical substance was estimated as the following, which is shown in Tables 1 to 9: [formula]
In the Tables, “Intensity” indicated in the rightmost column is a value of the level of expressed mRNA of each gene in control cells as divided by the average level of the expressions of the whole genes.

## S=C([S-])NCCNC(=S)[S-].[Zn+2] [(11), zinc N,N′-ethylenebis(dithiocarbamate)]
Yeast gene YMR293C, ratio of DNA chip fluorescence intensity to that without chemical substance
  The level of expressed mRNA in the presence of chemical substance/ (in its absence), gene YMR293C: 0.4
Yeast gene YMR314W
  The level of expressed mRNA in the presence of chemical substance/The level of expressed mRNA in the absence of chemical substance: 1.8
Yeast gene YNL006W
  The level of expressed mRNA in the presence of chemical substance/The level of expressed mRNA in the absence of chemical substance: 1.1
Yeast gene YNL007C
  The level of expressed mRNA in the presence of chemical substance/The level of expressed mRNA in the absence of chemical substance: 1.3
Yeast gene YNL025C, ratio of DNA chip fluorescence intensity to that without chemical substance
  The level of expressed mRNA in the presence of chemical substance/ (in its absence), gene YNL025C: 1.1
Yeast gene YNL064C
  The level of expressed mRNA in the presence of chemical substance/ (ratio to absence of chemical substance): 0.9
Yeast gene YNL073W, mitochondria-located protein genes, 2 h culture with chemical
  The level of expressed mRNA in the presence of chemical substance/ (ratio to absence), gene YNL073W: 1.1
Yeast gene YNL093W
  The level of expressed mRNA in the presence of chemical substance/The level of expressed mRNA in the absence of chemical substance: 1.6
Yeast gene YNL192W, ratio of DNA chip fluorescence intensity to that without chemical substance
  The level of expressed mRNA in the presence of chemical substance/ (in its absence), gene YNL192W: 1.1
Yeast gene YNL333W
  The level of expressed mRNA in the presence of chemical substance/The level of expressed mRNA in the absence of chemical substance: 2.0
Yeast gene YNR010W
  The level of expressed mRNA in the presence of chemical substance/The level of expressed mRNA in the absence of chemical substance: 1.4
Yeast gene YNR069C
  The level of expressed mRNA in the presence of chemical substance/The level of expressed mRNA in the absence of chemical substance: 2.5
Yeast gene YNR072W, ratio of DNA chip fluorescence intensity to that without chemical substance
  The level of expressed mRNA in the presence of chemical substance/ (in its absence), gene YNR072W: 1.4
Yeast gene YNR076W
  The level of expressed mRNA in the presence of chemical substance/ (ratio to absence of chemical substance): 1.4
Yeast gene YOL013C
  The level of expressed mRNA in the presence of chemical substance/The level of expressed mRNA in the absence of chemical substance: 1.4
Yeast gene YOL096C, mitochondria-located protein genes, 2 h culture with chemical
  The level of expressed mRNA in the presence of chemical substance/ (ratio to absence), gene YOL096C: 1.2
Yeast gene YOL096C, ratio of DNA chip fluorescence intensity to that without chemical substance
  The level of expressed mRNA in the presence of chemical substance/ (in its absence), gene YOL096C: 1.2
Yeast gene YOL108C, ratio of DNA chip fluorescence intensity to that without chemical substance
  The level of expressed mRNA in the presence of chemical substance/ (in its absence), gene YOL108C: 1.1
Yeast gene YOL116W, ratio of DNA chip fluorescence intensity to that without chemical substance
  The level of expressed mRNA in the presence of chemical substance/ (in its absence), gene YOL116W: 1.0
Yeast gene YOL161C
  The level of expressed mRNA in the presence of chemical substance/ (ratio to absence of chemical substance): 1.5
Yeast gene YOL164W
  The level of expressed mRNA in the presence of chemical substance/The level of expressed mRNA in the absence of chemical substance: 1.0
Yeast gene YOR008C
  The level of expressed mRNA in the presence of chemical substance/ (ratio to absence of chemical substance): 1.0
Yeast gene YOR009W
  The level of expressed mRNA in the presence of chemical substance/ (ratio to absence of chemical substance): 1.4
Yeast gene YOR010C
  The level of expressed mRNA in the presence of chemical substance/ (ratio to absence of chemical substance): 1.2
Yeast gene YOR036W
  The level of expressed mRNA in the presence of chemical substance/The level of expressed mRNA in the absence of chemical substance: 1.3
Yeast gene YOR103C, ratio of DNA chip fluorescence intensity to that without chemical substance
  The level of expressed mRNA in the presence of chemical substance/ (in its absence), gene YOR103C: 1.0
Yeast gene YOR117W
  The level of expressed mRNA in the presence of chemical substance/The level of expressed mRNA in the absence of chemical substance: 1.2
Yeast gene YOR124C
  The level of expressed mRNA in the presence of chemical substance/The level of expressed mRNA in the absence of chemical substance: 1.2
Yeast gene YOR132W
  The level of expressed mRNA in the presence of chemical substance/The level of expressed mRNA in the absence of chemical substance: 1.3
Yeast gene YOR157C
  The level of expressed mRNA in the presence of chemical substance/The level of expressed mRNA in the absence of chemical substance: 1.6
Yeast gene YOR180C, ratio of DNA chip fluorescence intensity to that without chemical substance
  The level of expressed mRNA in the presence of chemical substance/ (in its absence), gene YOR180C: 0.6
Yeast gene YOR181W
  The level of expressed mRNA in the presence of chemical substance/The level of expressed mRNA in the absence of chemical substance: 1.0
Yeast gene YOR185C
  The level of expressed mRNA in the presence of chemical substance/The level of expressed mRNA in the absence of chemical substance: 1.2
Yeast gene YOR198C
  The level of expressed mRNA in the presence of chemical substance/The level of expressed mRNA in the absence of chemical substance: 1.4
Yeast gene YOR251C, ratio of DNA chip fluorescence intensity to that without chemical substance
  The level of expressed mRNA in the presence of chemical substance/ (in its absence), gene YOR251C: 1.0
Yeast gene YOR259C
  The level of expressed mRNA in the presence of chemical substance/The level of expressed mRNA in the absence of chemical substance: 1.0
Yeast gene YOR261C
  The level of expressed mRNA in the presence of chemical substance/The level of expressed mRNA in the absence of chemical substance: 2.1
Yeast gene YOR288C
  The level of expressed mRNA in the presence of chemical substance/The level of expressed mRNA in the absence of chemical substance: 1.4
Yeast gene YOR316C, mitochondria-located protein genes, 2 h culture with chemical
  The level of expressed mRNA in the presence of chemical substance/ (ratio to absence), gene YOR316C: 2.4
Yeast gene YOR348C, ratio of DNA chip fluorescence intensity to that without chemical substance
  The level of expressed mRNA in the presence of chemical substance/ (in its absence), gene YOR348C: 1.1
Yeast gene YOR355W
  The level of expressed mRNA in the presence of chemical substance/The level of expressed mRNA in the absence of chemical substance: 1.2
Yeast gene YOR363C, ratio of DNA chip fluorescence intensity to that without chemical substance
  The level of expressed mRNA in the presence of chemical substance/ (in its absence), gene YOR363C: 1.2
Yeast gene YOR383C
  The level of expressed mRNA in the presence of chemical substance/The level of expressed mRNA in the absence of chemical substance: 1.4
Yeast gene YPL040C, mitochondria-located protein genes, 2 h culture with chemical
  The level of expressed mRNA in the presence of chemical substance/ (ratio to absence), gene YPL040C: 0.9
Yeast gene YPL059W
  The level of expressed mRNA in the presence of chemical substance/ (ratio to absence of chemical substance): 1.6
Yeast gene YPL089C
  The level of expressed mRNA in the presence of chemical substance/The level of expressed mRNA in the absence of chemical substance: 0.9
Yeast gene YPL134C, mitochondria-located protein genes, 2 h culture with chemical
  The level of expressed mRNA in the presence of chemical substance/ (ratio to absence), gene YPL134C: 1.7
Yeast gene YPL140C
  The level of expressed mRNA in the presence of chemical substance/ (ratio to absence of chemical substance): 0.8
Yeast gene YPL148C, ratio of DNA chip fluorescence intensity to that without chemical substance
  The level of expressed mRNA in the presence of chemical substance/ (in its absence), gene YPL148C: 3.5
Yeast gene YPL149W
  The level of expressed mRNA in the presence of chemical substance/The level of expressed mRNA in the absence of chemical substance: 1.2
Yeast gene YPL154C
  The level of expressed mRNA in the presence of chemical substance/The level of expressed mRNA in the absence of chemical substance: 1.8
Yeast gene YPL194W
  The level of expressed mRNA in the presence of chemical substance/ (ratio to absence of chemical substance): 0.9
Yeast gene YPR005C
  The level of expressed mRNA in the presence of chemical substance/ (ratio to absence of chemical substance): 0.4
Yeast gene YPR103W
  The level of expressed mRNA in the presence of chemical substance/The level of expressed mRNA in the absence of chemical substance: 0.9
Yeast gene YPR108W
  The level of expressed mRNA in the presence of chemical substance/The level of expressed mRNA in the absence of chemical substance: 1.8
Yeast gene YPR165W, ratio of DNA chip fluorescence intensity to that without chemical substance
  The level of expressed mRNA in the presence of chemical substance/ (in its absence), gene YPR165W: 1.0
Energy system protein genes, 2 h culture with the chemical, ratio to control without chemical
  The level of expressed mRNA in the presence of chemical substance/ in its absence, gene YPR184W: 3.6
Ratio of DNA chip fluorescence intensity to that without chemical substance
  The level of expressed mRNA in the presence of chemical substance/ in its absence, gene YPR184W: 3.6
